For series [1], the system named is iMet processing of 14-3-3γ in HUVEC. The conditions noted are these: for signal of unprocessed 14-3-3γ in the presence of cycloheximide: HUVEC treated with cycloheximide prior to MetAP inhibitor.
For series [2], the system named is HDFa. Description: [3H]-thymidine incorporation assay, HDFa. It is filed as cell-based. The conditions noted are these: Homo sapiens, read-out: Inhibition of Cell Proliferation (EC50, μM) HDFa.
The target in series [3] is T1, HsMetAP1 (Homo sapiens, UniProt P53582). Nature of the series: ProIP-coupled MetAP activity assay, HsMetAP1 with Co. Format: biochemical.
Series [4] deals with HsMetAP2 (Homo sapiens, UniProt P50579). Description: ProIP-coupled MetAP activity assay, HsMetAP2 with Mn. Format: biochemical.
Sequence of HsMetAP2 (P50579 whole entry): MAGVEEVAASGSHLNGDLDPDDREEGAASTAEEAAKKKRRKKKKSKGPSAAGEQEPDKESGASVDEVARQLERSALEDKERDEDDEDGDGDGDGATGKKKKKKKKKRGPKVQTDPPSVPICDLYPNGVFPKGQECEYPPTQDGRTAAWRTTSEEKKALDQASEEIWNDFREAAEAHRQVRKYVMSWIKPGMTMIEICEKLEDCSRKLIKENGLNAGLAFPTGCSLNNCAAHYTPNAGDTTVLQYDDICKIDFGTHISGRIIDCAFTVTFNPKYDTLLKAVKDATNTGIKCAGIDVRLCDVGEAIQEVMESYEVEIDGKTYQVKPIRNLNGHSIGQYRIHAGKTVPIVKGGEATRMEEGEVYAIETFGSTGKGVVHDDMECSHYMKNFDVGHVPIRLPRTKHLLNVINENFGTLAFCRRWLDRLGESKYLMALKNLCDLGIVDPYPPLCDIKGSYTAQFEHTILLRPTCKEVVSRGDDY
Series [5] has as its system initiator methionine of BTF3L4 in HEK293T cells. Description: Initiator methionine release assay, BTF3L4-3×Flag in HEK293T cells. The conditions noted are these: 10 μM 11j, 100 nM TNP-470. It is filed as cell-based, human.
Series [6] concerns initiator methionine of TXNL1 in HEK293T cells. Description: Initiator methionine release assay, TXNL1-3×Flag in HEK293T cells. Particulars: 10 μM. It is filed as cell-based, human.
For series [7] the following is noted: patients with advanced cancer; cited from earlier work.
The subject of series [8] is Escherichia coli. Particulars: at concentrations up to 1 mM; ref 46b; cited from earlier work.
The target of series [9] is T1, HsMetAP1. Nature of the series: LAO and HRP-coupled MetAP activity assay, HsMetAP1 with Zn. Format: biochemical. Particulars: concentrations up to 250 μM, Figure S3E.
Series [10] relates to iMet processing of 14-3-3γ in HDFa cells. The conditions noted are these: 3–250 μM, 24 hours.
Series [11] deals with Jurkat E6-1, HeLa, HEK293T, PC-3 and MCF-7. Nature of the series: iMet processing of 14-3-3γ by immunoblot in five neoplastic cell lines. Format: cell-based, human. Particulars: all five neoplastic cell lines, 100 nM, 24 hours.
The nature of series [12]: Solubility observed at highest doses tested in the proliferation assay. Particulars: 90 μM for 2, 40 μM for 3 and 40 μM for 4.

Take `c1ccc(-c2ccccn2)nc1` [2,2′-Bipyridine, 2,2′-bipyridine]: the “ability to block the NME of 14-3-3γ in cells, lower than 11j” value in series [1] (Figure 6B) was “at least 30 times”. For the same compound, the EC50 in series [2] was in the range of 10 to 30 µM. The inhibition at 100 µM in series [3] (read-out: inhibition of the activity of HsMetAP1 in the absence of Co(II)) is at most 30%.

In the case of `Clc1nc(-c2ccccn2)nc2ccccc12` [7a, 4-Chloro-2-(pyridin-2-yl)quinazoline], the “inhibitory activity against HsMetAP1 in the presence of Mn(II) / absence of Co(II)” value in series [3] (10 μM Mn(II)) is “completely lost the inhibitory activity”.

In series [3], `c1ccc(CCNc2nc(-c3ccccn3)nc3ccccc23)cc1` [10a, N-Phenethyl-2-(pyridin-2-yl)quinazolin-4-amine] showed an IC50 of 24 µM. Moreover, the “inhibitory activity against HsMetAP1 in the presence of Mn(II) / absence of Co(II)” value in series [3] (10 μM Mn(II)) is reported as “could completely inhibit HsMetAP1”.

Regarding `c1ccc(NCCNc2nc(-c3ccccn3)nc3ccccc23)cc1` [10b, N^1-Phenyl-N^2-[2-(pyridin-2-yl)quinazolin-4-yl]ethane-1,2-diamine], in series [3] (10 μM Mn(II)), the “inhibitory activity against HsMetAP1 in the presence of Mn(II) / absence of Co(II)” value is reported as “completely lost the inhibitory activity”.

`c1ccc(-c2nc(NCCc3c[nH]c4ccccc34)c3ccccc3n2)nc1` [10c, N-[2-(1H-indol-3-yl)ethyl]-2-(pyridin-2-yl)quinazolin-4-amine]: the EC50 in [4] is over 300 µM; in [3] (EC50 (μM) HsMetAP1 Co(II), Table 2, 10 μM Co(II), mean ± SD of at least three determinations), 0.12 ± 0.02 µM; in [3] (EC50 (μM) HsMetAP1 Mn(II), Table 2, 10 μM Mn(II), mean ± SD), 5.3 ± 0.7 µM. Further, in [3], the “increase in potency against HsMetAP1 with Co(II) compared with 10a” value was determined as 7.8 fold. Moreover, in [3] (Mn(II)), the “increase in potency against HsMetAP1 with Mn(II) compared with 10a” value is 4.5 fold.

`O=C(O)COc1ccc(N2CCN(c3nc(-c4ccccn4)nc4ccccc34)CC2)cc1` [11e, 2-(4-{4-[2-(Pyridin-2-yl)quinazolin-4-yl]piperazin-1-yl}phenoxy)acetic acid] registered an EC50 in [3] (EC50 (μM) HsMetAP1 Mn(II), Table 3, 10 μM Mn(II), mean ± SD) of over 100 µM.

Take `COc1ccc(N2CCN(c3nc(-c4ccccn4)nc4ccccc34)CC2)cc1` [11j, 4-[4-(4-Methoxyphenyl)piperazin-1-yl]-2-(pyridin-2-yl)quinazoline]: the “iMet retention of BTF3L4-3×Flag” value in series [5] is listed as “no appreciable increase”. In addition, in series [1], the “signal of unprocessed 14-3-3γ in the presence of cycloheximide” value (“signal of unprocessed 14-3-3γ” below) was “none of the MetAP inhibitors could generate a detectable signal”. Also, in series [1] (HUVEC, 10 μM, 1–7 hours), the “level of unprocessed 14-3-3γ over time” value is given as “increased in a time-dependent manner”. Also, the “increase of the release of [35S]-Met from TXNL1-3×Flag, more than the vehicle” value in [6] was found to be 40 ± 17%.

Consider `CO[C@@H](C(=O)N[C@H]1CC[C@@H](OC(=O)C2CCCCC2)CNC1=O)[C@H](O)[C@@H](O)[C@H](O)/C=C/C(C)(C)C` [LAF-389], for which, in series [7], the “reason for termination of the clinical study” value is given as “cardiovascular toxicity”.

Turning to `CO[C@@H]1[C@H](OC(=O)NC(=O)CCl)CC[C@]2(CO2)[C@H]1[C@@]1(C)O[C@@H]1CC=C(C)C` [TNP-470], the “iMet retention of BTF3L4-3×Flag” value in [5] is “no appreciable increase”. In addition, the “signal of unprocessed 14-3-3γ” value in series [1] is listed as “none of the MetAP inhibitors could generate a detectable signal”.

For the compound `c1ccc2[nH]c(-c3cscn3)nc2c1` [Thiabendazole, 4-(1H-1,3-benzodiazol-2-yl)-1,3-thiazole], in [8], the “activity against the growth of Escherichia coli” value is “inactive”. For the same compound, the “effect on the NME of 14-3-3γ” value in series [1] (HUVEC, 3–250 μM, 24 hours) is reported as “did not affect”; in [10] it was “did not affect”. Moreover, in [9], the “inhibition of HsMetAP1 in the absence of Co(II)” value is listed as “failed to inhibit”.

For `CCCCCCCCCCCCCC(=O)O[C@H]1CC[C@H](NC(=O)[C@H](OC)[C@H](O)[C@@H](O)[C@H](O)/C=C/C(C)C)C(=O)NC1` [bengamide A], the “increase in ratio of unprocessed versus total 14-3-3γ” value in [11] is reported as “no more than 2.6 fold”. Also, in [1], the “signal of unprocessed 14-3-3γ” value is given as “none of the MetAP inhibitors could generate a detectable signal”. For the same compound, the “increase in ratio of unprocessed 14-3-3γ versus total 14-3-3γ” value in series [1] (HUVEC, 24-hour treatment, 100 nM, Figure 2A) was 8 fold. Further, the “concentration of maximal response of accumulation of unprocessed 14-3-3γ” value in [1] (HUVEC, data not shown) is on record as “around 10 nM”.

In the case of `Cc1nc(-c2ccccn2)nc(NCCc2ccccc2)c1Cl` [compound 2, 5-chloro-6-methyl-N-(2-phenylethyl)-2-pyridin-2-ylpyrimidine-4-amine], in series [1] (HUVEC treated with 30 μM compound 2 plus TNP-470), the “increase in ratio when TNP-470 was supplemented” value stood at 3.5 fold.

For `Cc1nc(-c2ccc(Cl)cn2)nc(NC[C@@H](NCCCCc2ccccc2)c2ccccc2)c1Cl` [compound 3], in series [1] (10 μM, most cells floating after 24 hours), the “cytotoxicity” value is “severe cytotoxicity”. For the same compound, the “solubility at highest doses tested” value in [12] was “No solubility problems”.

As to `Cc1nc(-c2ccccn2)nc(NCCNc2ccc(C(F)(F)F)cn2)c1Cl` [compound 4], in [12], the “solubility at highest doses tested” value is “No solubility problems”.

As for `c1ccc(-c2nc(N3CCOCC3)c3ccccc3n2)nc1` [compound 17], in series [3], the “increase in potency against HsMetAP1 with Co(II) compared with 10a” value was 19 fold.

These data come from article PMC3714011 (Journal of medicinal chemistry, 2013).
